Source: patent US20070092551A1, “Therapeutic agent” (TAKARA BIO INC., priority 2003, published 2007)

Tests used:
[1] = tested on: mature adipocytes (3T3-L1 cells); assay: Synergistic action of 4-hydroxyderricin and insulin to enhance glucose uptake; format: cell-based
Description: As the evaluation of synergistic action of 4-hydroxyderricin prepared in Example 2 and a low-concentration insulin to enhance glucose uptake, the amount of 2-deoxyglucose uptake into mature adipocytes during the stimulation with the sample was determined partly in accordance with the method described in Example 83.
The mature adipocytes were prepared according to the method described in item (1) of Example 83.
After the termination of the culture, the medium was removed, and the cells were washed twice with a 0.1% (w/v) bovine serum albumin (manufactured by Sigma, A8022)-containing Dulbecco's modified Eagle's medium. Thereafter, 1 mL of the same medium containing a solution of 4-hydroxyderricin in dimethyl sulfoxide having a final concentration of 5 μM was added thereto. The cells were cultured overnight at 37° C. in the presence of 5% carbon dioxide gas. Here, a group without addition of 4-hydroxyderricin was set as a negative control. After the overnight culture, the cells were washed twice with a HEPES buffered saline (140 mM NaCl, 5 mM KCl, 2.5 mM MgSO4, 1 mM CaCl2, 20 mM HEPES-Na (pH 7.4)). The amount 0.9 mL of the same buffer containing 4-hydroxyderricin having a final concentration of 5 μM was added thereto. […] Thereafter, 2-deoxy-[1,2-^3H(N)]-glucose subjected to uptake into the adipocytes was determined in the same manner as the method described in item (2) of Example 83.

[2] = tested on: mature adipocytes which were induced to be differentiated by xanthoangelol; assay: Glucose uptake into adipocytes induced to be differentiated by xanthoangelol; format: cell-based; details: stimulation with 4-hydroxyderricin 20 μM; adipocytes differentiated with xanthoangelol 10 μM
Description: Adipocytes which were induced to be differentiated by xanthoangelol were obtained, and thereafter it was confirmed on whether the glucose uptake into the adipocytes is enhanced by stimulation with insulin or 4-hydroxyderricin.
Specifically, as a sample, there was set a group with addition of a dimethyl sulfoxide solution of xanthoangelol having a final concentration of 10 μM. Thereafter, the medium and the sample were exchanged in the same manner as in the method described in Example 82 except that 3-isobutyl-1-methylxanthine having a final concentration of 0.5 mM was added concurrently with the addition of dexamethasone, to give mature adipocytes which were induced to be differentiated by xanthoangelol.
Next, the amount of 2-deoxyglucose uptake into the mature adipocytes during the stimulation with insulin or 4-hydroxyderricin in the resulting mature adipocytes was determined in the same manner as in the method described in Example 83.
Specifically, there were set the group without the addition and the group with addition of insulin having a final concentration of 1 μg/mL or 4-hydroxyderricin having a final concentration of 20 μM. Thereafter, the amount of 2-deoxy-[1,2-^3H(N)]-glucose uptake into the adipocytes was determined in the same manner.

[3] = tested on: type II diabetes model mice; assay: Amelioration effects on diabetes of 4-hydroxyderricin (blood glucose level); format: in vivo; details: male KK-Ay mice
Description: Pathological amelioration effects of 4-hydroxyderricin were examined using type II diabetes model mice. Experiments were carried out with five male 12-week old KK-Ay mice (CLEA Japan, Inc.) per group. 4-Hydroxyderricin was suspended or dissolved in a 0.5% (w/v) carboxymethyl cellulose solution (CMC) so as to have a concentration of 4% (w/v), and the suspension or solution was forcibly orally administered to the mice once a day at 200 mg/kg for consecutive days. CMC was administered to each mice in the control group at 5 mL/kg in the same manner. On the day before the beginning of administration, on the fourth day and on the eighteenth day, blood was collected from the veins of mouse tails, and the blood glucose level was determined with a simple blood glucose meter, ACCU-CHEK Compact (Roche Diagnostics K.K.). […] Here, during the experimental period, no changes were found in body weight and general symptoms.

[4] = tested on: insulin-resistant mature adipocytes; assay: Enhancing action on glucose uptake into insulin-resistant (TNF-α treated) mature adipocytes; format: cell-based; details: 4-hydroxyderricin 30 μM; mature adipocytes treated with mouse-derived TNF-α 10 or 20 ng/mL
Description: It is said that tumor necrosis factor a (TNF-α) is deeply involved in insulin resistance, and it has been known that a signal from an insulin receptor is inhibited by treating mature adipocytes with TNF-α, so that a reaction of glucose uptake is inhibited by insulin stimulation (Proc. Natl. Acad. Sci. USA, vol. 91, p 4854-4858 (1994)). The enhancing action by 4-hydroxyderricin on glucose uptake into mature adipocytes in which insulin resistance was induced by TNF-α was evaluated.
The induction of differentiation into mature adipocytes was carried out in the same manner as in the method described in Example 83, except that after preparation of the mature adipocytes, in order to induce insulin resistance in these mature adipocytes, mouse-derived TNF-α (manufactured by Cosmobio, 3410) was added to the medium so as to have a final concentration of 10 ng/mL or 20 ng/mL, and the adipocytes were cultured for additional 2 days. […]
The enhancing action on glucose uptake was evaluated in the same manner as in the method described in Example 83. For each of the cells prepared in item (1) of Example 95 mentioned above, there were set a group containing 4-hydroxyderricin at a final concentration of 30 μM, a group without addition of the sample as a negative control, and a group with treatment with insulin, and the radioactivity of each group was determined. […]

[5] = 200 mg/kg oral once a day in CMC, mean ± standard error

COc1ccc(C(=O)/C=C/c2ccc(O)cc2)c(O)c1CC=C(C)C [4-Hydroxyderricin, 4,2′-Dihydroxy-3′-prenyl-4′-methoxychalcone]
2-deoxy-[1,2-3H(N)]-glucose uptake on addition simultaneously with insulin ([1]; 4-hydroxyderricin 5 μM + insulin 0.01 μg/mL, versus each alone): synergistically increasing the enhancing activity on glucose uptake
2-deoxy-[1,2-3H(N)]-glucose uptake ([1]; 4-hydroxyderricin 5 μM alone, compared to the negative control): enhancement of 2-deoxy-[1,2-^3H(N)]-glucose uptake
2-deoxy-[1,2-3H(N)]-glucose uptake [2]: enhancement of 2-deoxy-[1,2-^3H(N)]-glucose uptake
blood glucose level (in words) ([3]; 200 mg/kg oral once a day): lowered
Blood Glucose Level, Eighteenth Day [3, 5]: 191 ± 10 mg/dL
Blood Glucose Level, Fourth Day [3, 5]: 187 ± 9 mg/dL
changes in body weight and general symptoms ([3]; 200 mg/kg oral once a day, experimental period): no changes
Blood Glucose Level, Previous Day ([3]; day before beginning of administration, 200 mg/kg oral once a day in CMC, mean ± standard error): 262 ± 14 mg/dL
enhancing action on glucose uptake, increase without TNF-α defined as 100% [4]: around 80%
